Measurements as given in patent US9040240B2, “Arsenic assay using ELISA” (UNIVERSITE DE LORRAINE, priority 2011, dated 2015).

How the values were obtained:
[1] = system: human; conditions: ingestion; cited from earlier work
[2] = target: T1, ArsRFlagN protein (SEQ ID NO. 9) bound to Opars1 DNA fragment (Escherichia coli, UniProt P37309); assay: ELISA arsenic assay: ArsRFlagN protein remaining bound to Opars1 DNA fragment on streptavidin microplate, luminescence (CDP*); format: binding, Escherichia coli K12 strain MG1655; conditions: 60 min 25° C.
T1 construct: made in house; host or cells: Escherichia coli M15[pREP4] with plasmid pQEarsRFlagN (pQE70)
T1 sequence (P37309 with tags, fused parts or gaps): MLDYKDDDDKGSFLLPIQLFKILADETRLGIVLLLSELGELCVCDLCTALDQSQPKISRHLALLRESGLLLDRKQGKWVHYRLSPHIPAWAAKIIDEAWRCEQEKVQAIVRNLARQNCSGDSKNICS
Procedure: Different dilutions of arsenic solution to be assayed are added (4), the arsenic binds to the ArsR protein (5) that is separated from its site. These proteins are eliminated by washing. Only the ArsR proteins that have not bound arsenic remain attached to the DNA (6).
A specific antibody of the Flag sequence is added (7). That antibody binds the Flag sequence of the ArsR protein bound to the DNA. The antibody is coupled with an enzyme, alkaline phosphatase for example. Any antibodies not bound are eliminated by washing.
A substrate of the enzyme is added in the wells. Light is emitted when the substrate is cleaved by the enzyme (8). […] The quantity of arsenic contained in the sample is obtained by comparing the results with a standard curve.
In this example, the used DNA fragment containing the binding site of the ArsR protein is composed of 254 base pairs (SEQ ID NO. 1, called “Opars1” herein). Opars1 sequence has been obtained by PCR (DNA polymerase chain reaction) amplification using the primers Opars1L (SEQ ID NO. 2) and Opars1R (SEQ ID NO. 3). The chromosomal DNA of the Escherichia coli K12 bacteria strain MG1655 (ATCC 47076) was used as a template for the PCR amplification. Biotin was added on the nucleotide at position 5′ during synthesis of the Opars1L primer. Biotinylated Opars1 sequences, that is to say sequences with a biotin in position 5′, were thus obtained.
A “NUNC Immobilizer (trademark) Streptavidin” microplate (Nunc Streptavidin Microplate, Dominique Dutscher (ref. 056212), Brumath, France) with 96 wells with a useful volume of 100 μl each and whose surface is functionalized with streptavidin, was used. The wells of this microplate were washed three times using 300 μl of PBST solution.
A solution containing Opars1 DNA fragments was diluted in PBS solution to obtain a DNA concentration of 0.2 μM. 100 μl of that solution were placed in each well of the “NUNC Immobilizer (trademark) Streptavidin” microplate. The microplate was incubated for 60 minutes at 25° C., to enable binding of the DNA in the wells.
(§1) The unbound DNA was eliminated by three successive washes using 300 μl of PBST per well.
The ArsR protein of sequence SEQ ID NO. 4 corresponds to the protein that regulates the Ars operon of Escherichia coli K12 strain MG1655. The arsR gene of sequence SEQ ID NO. 5 coding that protein was amplified from the chromosomal DNA of that strain using the primers arsRR (SEQ ID NO. 6) and arsRL (SEQ ID NO. 7), and cloned in expression vector pQE70 (Qiagen) according to the protocol described in the document “The QiaExpressionist: A handbook for high-level expression and purification of 6×His-tagged proteins. June 2003. Fifth ed., Qiagen” [12]. A Flag sequence (SEQ ID NO. 10) was inserted in the N-terminal region of the ArsR protein and named “ArsRFlagN” (SEQ ID NO. 9). The Flag sequence is recognized by anti-Flag antibodies (Ref. A9469, Sigma Aldrich, Saint-Quentin Fallavier, France). This addition will allow detecting and assaying the ArsR protein more efficiently.
The 200 μg of ArsRFlagN proteins produced were diluted to 1/100 in PBST buffer. 100 μl of that solution were added in each of the assay wells. The microplate was incubated for 60 minutes at 25° C., to enable the attachment of the ArsRFlagN proteins on the DNA in the wells. The amount of ArsRFlagN proteins added per well was estimated at about 0.4 μg.
(§2) The unbound proteins were eliminated by three successive washes using 300 μl of PBST per well.
A DNA fragment containing the ArsR protein binding site was attached to a support in the same way as that set out in example 2 above.
A solution containing the ArsR protein was added according to the protocol presented in example 3 above, to enable the protein to bind with the DNA.
6 dilutions of arsenic solution, at 0.375 μg/L, 0.750 μg/L, 1.875 μg/L, 7.500 μg/L, 18.750 μg/L and 37.500 μg/L respectively, were prepared in PBS to provide a standard range. […]

[3] = target: T2, ArsRFlagN-6His protein (SEQ ID NO. 22) bound to Pars2Lbio/Pars2R DNA fragment (Escherichia coli, UniProt P37309); assay: ELISA arsenic assay: ArsRFlagN-6His protein remaining bound to Pars2Lbio/Pars2R DNA fragment on streptavidin microplate, luminescence (CDP*); format: binding; conditions: 60 min 25° C.
T2 construct: made in house; host or cells: Escherichia coli C43(DE3) pLysS, vector pET28b(+)
T2 sequence (P37309 with tags, fused parts or gaps): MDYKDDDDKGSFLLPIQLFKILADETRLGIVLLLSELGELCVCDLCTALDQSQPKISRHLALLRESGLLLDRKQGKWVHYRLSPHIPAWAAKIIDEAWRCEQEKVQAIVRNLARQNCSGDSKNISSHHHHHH
Procedure: In this example, the used DNA fragment containing the binding site of the ArsRFlagN-6His protein (SEQ ID NO. 22) is composed of a fragment of 41 biotinylated bases in position 5′ (SEQ ID NO. 25, named “Pars2Lbio”) hybridized to a further DNA fragment with 33 bases (SEQ ID NO 26, named “Pars2R”). The sequences Pars2Lbio and Pars2R were obtained by chemical synthesis (Eurofins MWG Operon, Ebersberg, Germany).
The biotinylated oligonucleotide (“Pars2Lbio”) was used at a concentration of 1 to 10 nM. The complementary oligonucleotide (“Pars2R”) was added in excess to enhance formation of the double strand. It was diluted in PBST buffer (between 1 and 10 nM, ideally 5, for the biotinylated oligonucleotide; between 4 and 40 nM, ideally 20, for the complementary oligonucleotide). The mixture was heated for one minute at 65° C. to eliminate any secondary structures that could have been formed by each oligonucleotide.
A “NUNC Immobilizer (trademark) Streptavidin” microplate (Nunc Streptavidin Microplate, Dominique Dutscher (ref. 056212), Brumath, France) with 96 wells with a useful volume of 100 μl each and whose surface is functionalized with streptavidin, was used. The wells in the microplate were washed three times using of 300 μl of PBST solution.
The DNA solution was then distributed in the microplate wells (100 μl per well). The microplate was placed at 25° C. for one hour to enable binding of the DNA fragments thanks to the biotin-streptavidin affinity.
as §1
100 μl of PBSTLE solution were added in the microplate wells. The microplate was incubated for 60 minutes at 25° C. to enable non-specific binding of the milk proteins on the bottom and the walls of the well. This step limits non-specific binding of the ArsRFlagN-6His protein (SEQ ID NO. 22) and the conjugated anti-Flag antibodies (Ref. A9469, Sigma Aldrich, Saint-Quentin Fallavier, France). The unbound proteins were eliminated by three successive washes of the well using 300 μl of PBST buffer.
A solution of ArsRFlagN-6His protein (SEQ ID NO. 22) at 1 μg/ml was prepared in PBST buffer. 100 μl of this solution were added in each of the assay wells. The microplate was incubated for 60 minutes at 25° C., to enable the ArsRFlagN-6His proteins to bind with the DNA in the wells.
as §2
The DNA fragment defined in example 6 and containing the ArsR protein binding site was bound to a support in the same way as presented in example 6 above.
A solution containing the ArsRFlagN-6His protein (SEQ ID NO. 22) was added according to the protocol presented in example 7 above, to enable the protein to bind with the DNA.
5 dilutions of arsenic solution, at 0 μg/L, 2 μg/L, 3 μg/L, 4 μg/L, and 5 μg/L respectively, were prepared in PBS to provide a control sample range. 100 μl of each of these dilutions were added respectively in a microplate well.
The microplate was incubated for 60 minutes at 25° C., to enable the arsenic to bind with the ArsRFlagN-6His proteins (SEQ ID NO. 22).
The unbound ArsRFlagN-6His proteins (SEQ ID NO. 22) were eliminated by three successive washed using 300 μl of PBST per well.
100 μl of a solution of anti-Flag antibody (Ref. A9469, Sigma Aldrich, Saint-Quentin Fallavier, France), conjugated with alkaline phosphatase, were added in each wells. The antibody was previously diluted in PBST in compliance with the supplier's recommendations (dilution factor 1/500). The microplate was incubated for 60 minutes at 25° C. to enable the antibody to bind with the ArsRFlagN-6His proteins.
The unbound anti-Flag antibodies were eliminated by three successive washes using 300 μl of PBST per well.
A CDP* solution at 0.25 mM was prepared in buffer 1. 100 μl of CDP* solution were placed in the different assay wells. The light emitted was immediately measured using a luminometer (LumiStar, BMG Lab Technologies).

[4] = Storage stability of purified ArsRFlagN-6His protein; format: physicochemical
Procedure: The ArsRFlagN-6His protein (SEQ ID NO. 22) was purified by affinity chromatography (IMAC). An Ni-NTA column was balanced with PBS buffer+10 mM of imidazole. The clear lysate was deposited on the column. The buffer was eluted by gravity. The column was firstly washed using PBS buffer+10 mM of imidazole (10 column volumes) and secondly using PBS buffer+20 mM of imidazole. The ArsR protein was eluted using an imidazole gradient in PBS buffer (PBS buffer with increasing concentrations of imidazole: 30 to 400 mM). The fractions collected were analysed (SDS-PAGE gel). Fractions that contained the greatest quantity of protein were stored at 4° C. (3 ml of PBS buffer, imidazole 300 mM, pH 7.5). ArsR protein concentration was of 1 mg/ml. The protein is stable for 15 days at 4° C. It can be stored for several weeks at lower temperatures (−20 and −80° C.) in the presence of a cryoprotector (glycerol at 50%, volume/volume).

Molecule: [AsH3] [arsenic]
- amount of arsenic ingested causing acute intoxication [1]: 1 to 2 mg/kg/day

Molecule: arsenite [AsIII]
- Luminescence value (L) ([2]; AsIII 0.005 μM (0.375 μg/L)): 6,426
- logL ([2]; AsIII 0.005 μM (0.375 μg/L)): 3.81
- Luminescence value (L) ([2]; AsIII 0.01 μM (0.750 μg/L)): 5,808
- logL ([2]; AsIII 0.01 μM (0.750 μg/L)): 3.76
- Luminescence value (L) ([2]; AsIII 0.025 μM (1.875 μg/L)): 5,023
- logL ([2]; AsIII 0.025 μM (1.875 μg/L)): 3.70
- Luminescence value (L) ([2]; AsIII 0.100 μM (7.500 μg/L)): 4,422
- logL ([2]; AsIII 0.100 μM (7.500 μg/L)): 3.65
- Luminescence value (L) ([2]; AsIII 0.250 μM (18.750 μg/L)): 3,776
- logL ([2]; AsIII 0.250 μM (18.750 μg/L)): 3.58
- Luminescence value (L) ([2]; AsIII 0.500 μM (37.500 μg/L)): 2,831
- logL ([2]; AsIII 0.500 μM (37.500 μg/L)): 3.45
- Luminescence value (L) ([3]; AsIII 0.027 μM (2 μg/L)): 4,710
- logL ([3]; AsIII 0.027 μM (2 μg/L)): 3.6730
- Luminescence value (L) ([3]; AsIII 0.040 μM (3 μg/L)): 4,457
- logL ([3]; AsIII 0.040 μM (3 μg/L)): 3.6490
- Luminescence value (L) ([3]; AsIII 0.053 μM (4 μg/L)): 4,061
- logL ([3]; AsIII 0.053 μM (4 μg/L)): 3.6086
- Luminescence value (L) ([3]; AsIII 0.067 μM (5 μg/L)): 3,906
- logL ([3]; AsIII 0.067 μM (5 μg/L)): 3.5917

B1: ArsRFlagN-6His protein: recombinant E. coli ArsR regulator protein with N-terminal Flag peptide and polyhistidine tail (protein)
chain: MDYKDDDDKGSFLLPIQLFKILADETRLGIVLLLSELGELCVCDLCTALDQSQPKISRHLALLRESGLLLDRKQGKWVHYRLSPHIPAWAAKIIDEAWRCEQEKVQAIVRNLARQNCSGDSKNISSHHHHHH
modifications: ArsRFlagN-6His protein
notes: recombinant E. coli ArsR regulator protein with N-terminal Flag peptide and polyhistidine tail
- time the protein is stable ([4]; 4° C., PBS buffer, imidazole 300 mM, pH 7.5, 1 mg/ml): 15 days
- time the protein can be stored ([4]; −20 and −80° C., in the presence of glycerol at 50% (volume/volume)): several weeks
